Experimental data as given in patent US5760036A, “Aminediol protease inhibitors” (E. R. Squibb & Sons, Inc., priority 1995, dated 1998).
Like-named read-outs stand apart in the source and are kept apart here. Each block holds one compound with its values, some of them ahead of it.

Legend:
[1] = system: RF strain of HIV (CEM-SS cells); test: Cell Culture Anti-HIV Activity (cell viability, formazan); assay type: cell-based; conditions: Human immunodeficiency virus 1, CEM-SS, 144 h, CEM-SS cells, RF strain of HIV, multiplicity of infection 0.04, 6 days at 37° C., 450 nm; read-out: HIV (CEM Cells) IC50
Method in brief: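 CEM-SS cells (5000/well) infected with HIV RF at MOI 0.04, exposed to half-log serial compound dilutions, incubated 6 days at 37° C. Viability read by tetrazolium reduction to formazan, absorbance 450 nm. IC50 is the concentration raising formazan in infected cells to 50% of uninfected, drug-free cells.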

[2] = molecular target: T1, HIV protease (Human immunodeficiency virus type 1 group M subtype B, UniProt P04585); test: HIV Protease Assay; assay type: biochemical
T1 construct: and purified protease
Method in brief: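 Purified protease cleaved 450 μM octapeptide substrate in 50 mM sodium acetate pH 5.5 with 100 μg/ml BSA for 30 minutes at 37° C; product analyzed by reverse-phase HPLC at UV220 after H3PO4 quench. Inhibitors tested at final 10 μM with 4% DMSO.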

[3] = pH 5.5, 10 μM inhibitor, 4% DMSO, 450 μM substrate, pH 5.5, 30 minutes at 37° C., RP-HPLC, read-out: HIV Protease % Inhibition at 10 μM

Compound: CC(C)[C@H](NC(=O)c1ccc2ccccc2n1)C(=O)N[C@@H](Cc1ccccc1)[C@H](O)CNC[C@@H](O)[C@H](Cc1ccccc1)NC(=O)OC(C)(C)C [Compound 80, [S-[1R*,2S*(2S*,3R*)]]-N-[3-[[3-[[(1,1-Dimethylethoxy)carbonyl]amino]-2-hydroxy-4-phenylbutyl]amino]-2-hydroxy-1-(phenylmethyl)propyl]-N2-(2-quinolinylcarbonyl)-L-valinamide]
IC50 [1]: 300 nM
inhibition at 10 µM [2, 3]: 98%

Compound: CC(C)(C)OC(=O)N[C@@H](Cc1ccccc1)[C@H](O)CNC[C@@H](O)[C@H](Cc1ccccc1)NC(=O)OC(C)(C)CCCOCc1ccccc1 [Compound 210, [1S-(1R*,2S*)]-[Iminobis[2-hydroxy-1-(phenylmethyl)-3,1-propanediyl]]biscarbamic acid, 1,1-dimethylethyl-4-(phenylmethoxy)-1,1-dimethylbutyl ester]
IC50 [1]: > 5000 nM
inhibition at 10 µM [2, 3]: 81%

Compound: CC(C)(C)OC(=O)N[C@@H](Cc1ccccc1)[C@H](O)CNC[C@@H](O)[C@H](Cc1ccccc1)NC(=O)OC(C)(C)Cc1ccccc1 [Compound 154, [R-(R*,S*)]-Iminobis[2-hydroxy-1-(phenylmethyl)-3,1-propanediyl)]biscarbamic acid, 1,1-dimethylethyl 1,1-dimethyl-2-phenylethyl ester]
IC50 [1]: > 1200 nM
inhibition at 10 µM [2, 3]: 96%

Compound: CC(C)[C@H](NC(=O)OCCNc1ccccc1)C(=O)N[C@@H](Cc1ccccc1)[C@H](O)CNC[C@@H](O)[C@H](Cc1ccccc1)NC(=O)OC(C)(C)C (relative stereo) [Compound 203, [1R*,2S*(2S*,3R*)]-N-[3-[[3-[[(1,1-Dimethylethoxy)carbonyl]amino]-2-hydroxy-4-phenylbutyl]amino]-2-hydroxy-1-(phenylmethyl)propyl]-N^2-[[2-(phenylamino)ethoxy]carbonyl]-L-valinamide]
IC50 [1]: 200 nM
inhibition at 10 µM [2, 3]: 98%

Compound: CC(C)(C)NC(=O)N[C@@H](Cc1ccccc1)[C@H](O)CNC[C@@H](O)[C@H](Cc1ccccc1)NC(=O)NC(C)(C)C [Compound 47, [R-(R*,S*)]-N,N"-[Iminobis[2-hydroxy-1-(phenylmethyl)-3,1-propanediyl]]-bis[N'-(1,1-dimethylethyl)urea]]
IC50 [1]: 1100 nM
inhibition at 10 µM [2, 3]: 81%

Compound: CC(C)[C@H](NC(=O)N(C)Cc1ccccn1)C(=O)N[C@@H](Cc1ccccc1)[C@H](O)CNC[C@@H](O)[C@H](Cc1ccccc1)NC(=O)OC(C)(C)C [Compound 76, [S-[1R*,2S*(2S*,3R*)]]-N-[3-[[3-[[(1,1-Dimethylethoxy)carbonylamino]-2-hydroxy-4-phenylbutyl]amino]-2-hydroxy-1-(phenylmethyl)propyl]-N^2 [[methyl(2-pyridinyl-methyl)amino]carbonyl]-L-valinamide]
IC50 [1]: 600 nM
inhibition at 10 µM [2, 3]: 100%

Compound: CC(C)(C)OC(=O)N[C@@H](Cc1ccccc1)[C@H](O)CNC[C@@H](O)[C@H](Cc1ccccc1)NC(=O)OC1CCc2ccccc21 (stereo partly drawn) [Compound 144, [1S-(1R*,2S*)]-[Iminobis[2-hydroxy-1-(phenylmethyl)-3,1-propanediyl)]-bis[carbamic acid], 1,1-dimethylethyl-2,3-dihydro-1H-inden-1-yl ester]
IC50 [1]: 1000 nM
inhibition at 10 µM [2, 3]: 88%

Compound: CC(C)(C)OC(=O)N[C@@H](Cc1ccccc1)C(O)CN(Cc1ccccc1)CC(O)[C@H](Cc1ccccc1)NC(=O)OC(C)(C)C (stereo partly drawn) [Compound 194, [2S-(2R*,2R*)]-[[(Phenylmethyl)-imino]bis[2-hydroxy-4-phenyl-3,1-butanediyl]]biscarbamic acid, bis(1,1-dimethylethyl)ester]
IC50 [1]: > 5000 nM
inhibition at 10 µM [2, 3]: 0%

Compound: C[C@H](O)[C@H](NC(=O)OCc1ccccc1)C(=O)N[C@@H](Cc1ccccc1)[C@H](O)CNC[C@@H](O)[C@H](Cc1ccccc1)NC(=O)OC(C)(C)C (relative stereo) [Compound 205, [1R*,2S*(2S*,3R*)]-N-[3-[[3-[[(1,1-Dimethylethoxy)carbonyl]amino]-2-hydroxy-4-phenylbutyl]amino]-2-hydroxy-1-(phenylmethyl)propyl]-N^2-[(phenylmethoxy)carbonyl]-L-allothreoninamide]
IC50 [1]: 70 nM
inhibition at 10 µM [2, 3]: 98%

Compound: CC(C)[C@H](NC(=O)OC1CCc2ccccc21)C(=O)N[C@@H](Cc1ccccc1)[C@H](O)CNC[C@@H](O)[C@H](Cc1ccccc1)NC(=O)OC(C)(C)C (stereo partly drawn) [Compound 67, [S-[1R*,2S*(2S*,3R*)]]-N^2-[[2,3-Dihydro-1H-inden-1-yl)oxy]carbonyl]-N-[3-[[3-[[(1,1-dimethylethoxy)carbonyl]amino]-2-hydroxy-4-phenylbutyl]amino]-2-hydroxy-1-(phenylmethyl)propyl]-L-valinamide]
IC50 [1]: 40 nM
inhibition at 10 µM [2, 3]: 100%

More lines, main results first:

inhibition at 10 µM [2, 3]: 99%
Compound: COC(=O)N[C@H](C(=O)N[C@@H](Cc1ccc(OCC(=O)N2CCOCC2)cc1)[C@H](O)CNC[C@@H](O)[C@H](Cc1ccccc1)NC(=O)OC(C)(C)C)C(C)(C)C (relative stereo) [Compound 341, [1R*,2S*(2S*,3R*)]-N-[3-[[3-[[(1,1-Dimethylethoxy)carbonyl]amino]-2-hydroxy-4-phenylbutyl]amino]-2-hydroxy-1-[[4-[2-(4-morpholinyl)-2-oxoethoxy]phenyl]methyl]propyl]-N^2-(2-methoxycarbonyl)-3-methyl-L-valinamide]
IC50 [1]: 2100 nM

inhibition at 10 µM ([2]; pH 5.5, read-out: HIV Protease % Inhibition at 10 μM): 100%
Compound: CC(C)(C)OC(=O)N[C@@H](Cc1ccccc1)[C@H](O)CNC[C@@H](O)[C@H](Cc1ccccc1)NC(=O)[C@](C)(O)C(C)(C)C [Compound 262, [1S-[1R*,2S*[2S*,3R*(S*)]]]-[3-[[3-[(2-Hydroxy-2,3,3-trimethyl-1-oxobutyl)amino]-2-hydroxy-4-phenylbutyl]amino]-2-hydroxy-1-(phenylmethyl)propyl]carbamic acid, 1.1-dimethylethyl ester]
IC50 [1]: 30 nM

inhibition at 10 µM [2, 3]: 99%
Compound: CC(C)(C)OC(=O)N[C@@H](Cc1ccccc1)[C@H](O)CNC[C@@H](O)[C@H](Cc1ccccc1)NC(=O)[C@H](O)C(C)(C)C [Compound 334, [1S-[1R*,2S*[2S*,3R*(S*)]]]-[3-[[3-[(2-Hydroxy-3,3-dimethyl-1-oxobutyl)amino]-2-hydroxy-4-phenylbutyl]amino]-2-hydroxy-1-(phenylmethyl)propyl]carbamic acid, 1,1-dimethylethyl ester]
IC50 [1]: 50 nM

inhibition at 10 µM [2, 3]: 100%
Compound: CC(C)(C)OC(=O)N[C@@H](Cc1ccc(OCCc2ccccn2)cc1)[C@H](O)CNC[C@@H](O)[C@H](Cc1ccccc1)NC(=O)OC(C)(C)CO [Compound 298, [1S-[1R*,2S*(2S*,3R*)]]-[2 Hydroxy-3-[[2-hydroxy-3-[[(2-hydroxy-1,1-dimethylethoxy)carbonyl]amino]-4-phenylbutyl]amino]-1-[[4-[2-(2-pyridinyl)ethoxy]phenyl]methyl]propyl]carbamic acid, 1,1-dimethylethyl ester]
IC50 [1]: 60 nM

inhibition at 10 µM [2, 3]: 100%
Compound: CC(C)[C@H](NC(=O)OCC1=Cc2ccccc2C1)C(=O)N[C@@H](Cc1ccccc1)[C@H](O)CNC[C@@H](O)[C@H](Cc1ccccc1)NC(=O)OC(C)(C)C (relative stereo) [Compound 280, [1R*, 2S* (2S*, 3R*)]-N-[3-[[3-[[(1,1-Dimethylethoxy)carbonyl]amino]-2-hydroxy-4-phenylbutyl]amino]-2-hydroxy-1-(phenylmethyl)propyl]-N^2-[[(1H-inden-2-yl)methoxy]carbonyl]-L-valinamide]
IC50 [1]: 50 nM

inhibition at 10 µM [2, 3]: 99%
Compound: COC(=O)N[C@H](C(=O)N[C@@H](Cc1ccccc1)[C@H](O)CNC[C@@H](O)[C@H](Cc1ccccc1)NC(=O)OC(C)(C)C)C(C)C (relative stereo) [Compound 247, [1R*,2S*,3R*)]-N-[3-[[3-[[(1,1-Dimethylethoxy)carbonyl]amino]-2-hydroxy-4-phenylbutyl]amino]-2-hydroxy-1-(phenylmethyl)propyl]-N^2-(methoxycarbonyl)-L-valinamide]
IC50 [1]: 100 nM

inhibition at 10 µM [2, 3]: 100%
Compound: CC(C)(C)OC(=O)N[C@@H](Cc1ccccc1)[C@H](O)CNC[C@@H](O)[C@H](Cc1ccc(OCCCc2nc3ccccc3o2)cc1)NC(=O)OC(C)(C)C [Compound 244, [1S-[1R*,2S*(2S*,3R*)]]-[3-[[3-[[(1,1-Dimethylethoxy)carbonyl]amino]-2-hydroxy-4-[4-[3-[(2-benzoxazolyl)-propoxy]phenyl]butyl]amino]-2-hydroxy-1-(phenylmethyl)propyl]carbamic acid, 1,1-dimethylethyl ester]
IC50 [1]: 1500 nM

inhibition at 10 µM [2, 3]: 92%
Compound: CC(C)(C)OC(=O)N[C@@H](Cc1ccccc1)[C@H](O)CNC[C@@H](O)[C@H](Cc1ccccc1)NC(=O)OC[C@@H](O)CO [Compound 230, [1S-(1R*,2S*),(R*)]-[Iminobis[2-hydroxy-1-(phenylmethyl)-3,1-propanediyl]]biscarbamic acid, 2,3-dihydroxypropyl 1,1-dimethylethyl ester]
IC50 [1]: 4900 nM

inhibition at 10 µM [2, 3]: 96%
Compound: CC(C)[C@H](NC(=O)OCCO)C(=O)N[C@@H](Cc1ccccc1)[C@H](O)CNC[C@@H](O)[C@H](Cc1ccccc1)NC(=O)OC(C)(C)C (relative stereo) [Compound 218, [1R*,2S*(2S*,3R*)]-N-[3-[[3-[[(1,1-Dimethylethoxy)carbonyl]amino]-2-hydroxy-4-phenylbutyl]amino]-2-hydroxy-1-(phenylmethyl)propyl]-N^2-[(2-hydroxyethoxy)carbonyl]-L-valinamide]
IC50 [1]: 1100 nM
